Experimental data published in patent publication US20260146035A1, “FUSED BICYCLIC COMPOUNDS AND THEIR USE AS MER AND AXL INHIBITORS” (DONG-A ST CO., LTD., priority 2022, published 2026).

Key:
human MER (528-end) = target: T1, human MER (528-end) (Homo sapiens, UniProt Q12866); assay: HTRF kinase activity biochemical assay, MER; settings: 10 μM ATP, 30 minutes pre-incubation; read-out: HTRF MERTK IC50
T1 construct: human MER (528-end); purchased Camnabio, Japan
T1 sequence (Q12866 528-999 limits assumed): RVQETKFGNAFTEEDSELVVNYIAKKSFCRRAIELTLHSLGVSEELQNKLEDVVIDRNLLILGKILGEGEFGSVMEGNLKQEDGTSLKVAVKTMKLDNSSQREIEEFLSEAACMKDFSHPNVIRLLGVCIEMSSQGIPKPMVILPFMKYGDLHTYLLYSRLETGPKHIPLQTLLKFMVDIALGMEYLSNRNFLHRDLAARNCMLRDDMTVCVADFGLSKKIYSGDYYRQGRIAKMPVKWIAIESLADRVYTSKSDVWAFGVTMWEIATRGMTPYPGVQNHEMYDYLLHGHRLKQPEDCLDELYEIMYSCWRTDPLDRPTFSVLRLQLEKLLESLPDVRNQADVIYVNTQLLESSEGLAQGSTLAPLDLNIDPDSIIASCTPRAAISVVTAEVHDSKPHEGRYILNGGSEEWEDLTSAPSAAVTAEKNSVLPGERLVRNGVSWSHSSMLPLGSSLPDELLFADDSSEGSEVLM
Description: (§1) For the SAR (structure-activity relationship) and compound screening, HTRF (Homogeneous Time Resolved Fluorescence) kinase activity assay was employed for all MER, AXL and TYRO3 kinases using Cisbio HTRF® KinEASE™-TK kit (Cisbio, USA). The kit included biotin-labeled TK substrate, streptavidin-XL665, Eu3+-cryptate-labeled TK antibody and HTRF® Detection buffer. There are two main steps in the kinase assay: kinase reaction and detection of phosphorylated substrate. The reaction was carried out in white low volume 384-well plate (Corning, USA) with 25 nL compound in dimethyl sulfoxide in each well. […] After 1 hour incubation at room temperature, the fluorescence intensity was measured with Envision[…] plate reader (PerkinElmer, USA). Upon excitation at 340 nm by UV, the energy from Eu3+ donor of the antibody is transferred to the FRET acceptor XL665, and […] emits light at 665 nm.

human TYRO3 (455-end) = target: T2, human TYRO3 (455-end) (Homo sapiens, UniProt Q06418); assay: HTRF kinase activity biochemical assay, TYRO3; settings: 10 μM ATP, 30 minutes pre-incubation; read-out: HTRF TYRO IC50
T2 construct: TYRO3 (455-end); purchased SignalChem, Canada
T2 sequence (Q06418 455-890 limits assumed): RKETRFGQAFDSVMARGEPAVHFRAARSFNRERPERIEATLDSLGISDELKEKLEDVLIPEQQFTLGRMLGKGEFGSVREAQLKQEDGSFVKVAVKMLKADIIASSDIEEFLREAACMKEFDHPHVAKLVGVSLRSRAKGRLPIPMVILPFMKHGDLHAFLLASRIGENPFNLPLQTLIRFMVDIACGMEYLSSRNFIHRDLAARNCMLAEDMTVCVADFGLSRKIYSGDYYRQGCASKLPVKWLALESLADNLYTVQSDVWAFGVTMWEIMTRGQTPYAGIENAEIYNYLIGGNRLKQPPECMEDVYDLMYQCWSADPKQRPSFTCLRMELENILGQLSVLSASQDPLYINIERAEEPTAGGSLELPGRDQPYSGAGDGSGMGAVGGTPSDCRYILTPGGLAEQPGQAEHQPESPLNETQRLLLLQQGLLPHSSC
Description: as §1

human AXL (473-end) = target: T3, human AXL (473-end) (Homo sapiens, UniProt P30530); assay: HTRF kinase activity biochemical assay, AXL; settings: 10 μM ATP, 30 minutes pre-incubation
T3 construct: human AXL (473-end); purchased SignalChem, Canada
T3 sequence (P30530 473-894 limits assumed): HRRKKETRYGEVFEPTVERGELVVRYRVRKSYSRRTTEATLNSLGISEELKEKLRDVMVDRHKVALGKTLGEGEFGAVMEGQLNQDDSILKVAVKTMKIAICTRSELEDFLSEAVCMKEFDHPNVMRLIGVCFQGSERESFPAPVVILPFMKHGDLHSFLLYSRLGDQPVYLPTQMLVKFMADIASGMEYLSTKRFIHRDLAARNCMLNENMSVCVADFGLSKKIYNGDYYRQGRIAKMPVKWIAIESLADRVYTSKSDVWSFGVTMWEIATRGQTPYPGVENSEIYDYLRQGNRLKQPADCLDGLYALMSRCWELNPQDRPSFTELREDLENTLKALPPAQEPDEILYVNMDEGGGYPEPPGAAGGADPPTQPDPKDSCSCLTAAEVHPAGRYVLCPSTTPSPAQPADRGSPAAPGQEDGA
Description: as §1

Row | SMILES | IC50 (human MER (528-end)) | IC50 (human TYRO3 (455-end)) | IC50 (human AXL (473-end))
1 | CN1C[C@H](NC(=O)c2cc(-c3ccc(F)nc3)cnc2N)[C@@H](OCc2ccc(-c3ccc4c(c3)C(C)(C)CN4C3CCN(CCO)CC3)cc2)C1 [Example 37, 6-amino-6′-fluoro-N-{(3S,4S)-4-[(4-{1-[1-(2-hydroxyethyl)piperidin-4-yl]-3,3-dimethyl-2,3-dihydro-1H-indol-5-yl}phenyl)methoxy]-1-methylpyrrolidin-3-yl}[3,3′-bipyridine]-5-carboxamide] | < 10 nM | 100 to 1000 nM | 10 to 100 nM
2 | Cn1cc(-c2cnc(N)c(C(=O)N[C@H]3CCC[C@@H]3OCc3ccc(-c4ccc5c(c4)CC(F)(F)C5N4CCN(CCO)CC4)cc3)c2)cn1 (stereo partly drawn) [Example 50, 2-amino-N-{(1S,2S)-2-[(4-{2,2-difluoro-1-[4-(2-hydroxyethyl)piperazin-1-yl]-2,3-dihydro-1H-inden-5-yl}phenyl)methoxy]cyclopentyl}-5-(1-methyl-1H-pyrazol-4-yl)pyridine-3-carboxamide] | < 10 nM | 100 to 1000 nM | < 10 nM
3 | Nc1ncc(-c2ccc(F)nc2)cc1C(=O)N[C@H]1CCC[C@@H]1OCc1ccc(-c2ccc3c(c2)CC(F)(F)C3N2CCN(CC(O)CO)CC2)cc1 (stereo partly drawn) [Example 62, 6-amino-N-{(1S,2S)-2-[(4-{1-[4-(2,3-dihydroxypropyl)piperazin-1-yl]-2,2-difluoro-2,3-dihydro-1H-inden-5-yl}phenyl)methoxy]cyclopentyl}-6′-fluoro[3,3′-bipyridine]-5-carboxamide] | < 10 nM | > 1000 nM | < 10 nM
4 | CN1CC(C(=O)NC2Cc3ccc(-c4ccc(CO[C@H]5CCC[C@@H]5NC(=O)c5cc(-c6cnn(C)c6)cnc5N)cc4)cc3C2)C1 (stereo partly drawn) [Example 11, 2-amino-N-{(1S,2S)-2-[(4-{2-[(1-methylazetidine-3-carbonyl)amino]-2,3-dihydro-1H-inden-5-yl}phenyl)methoxy]cyclopentyl}-5-(1-methyl-1H-pyrazol-4-yl)pyridine-3-carboxamide] | < 10 nM | > 1000 nM | 10 to 100 nM
5 | Cn1cc(-c2cnc(N)c(C(=O)N[C@H]3CCC[C@@H]3OCc3ccc(-c4ccc5c(N6CCN(CCO)CC6)coc5c4)cc3)c2)cn1 [Example 95, 2-amino-N-{(1S,2S)-2-[(4-{3-[4-(2-hydroxyethyl)piperazin-1-yl]-1-benzofuran-6-yl}phenyl)methoxy]cyclopentyl}-5-(1-methyl-1H-pyrazol-4-yl)pyridine-3-carboxamide] | 10 to 100 nM | > 1000 nM | 100 to 1000 nM
6 | Cn1cc(-c2cnc(N)c(C(=O)N[C@H]3CCC[C@@H]3OCc3ccc(-c4ccc5c(c4)C(C)(C)CN5C4CCN(CC(O)CO)CC4)cc3)c2)cn1 (stereo partly drawn) [Example 23, 2-amino-N-{(1S,2S)-2-[(4-{1-[1-(2,3-dihydroxypropyl)piperidin-4-yl]-3,3-dimethyl-2,3-dihydro-1H-indol-5-yl}phenyl)methoxy]cyclopentyl}-5-(1-methyl-1H-pyrazol-4-yl)pyridine-3-carboxamide] | < 10 nM | < 10 nM | < 10 nM
7 | Cn1cc(-c2cnc(N)c(C(=O)N[C@H]3CCC[C@@H]3OCc3ccc(-c4ccc5c(ccn5C5CCN(CCO)CC5)c4)cc3)c2)cn1 [Example 7, 2-amino-N-{(1S,2S)-2-[(4-{1-[1-(2-hydroxyethyl)piperidin-4-yl]-1H-indol-5-yl}phenyl)methoxy]cyclopentyl}-5-(1-methyl-1H-pyrazol-4-yl)pyridine-3-carboxamide] | < 10 nM | 100 to 1000 nM | < 10 nM
8 | Cn1cc(-c2cnc(N)c(C(=O)N[C@H]3CCC[C@@H]3OCc3ccc(-c4ccc5c(c4)CC[C@@H]5N4CCN(CC(O)CO)CC4)cc3)c2)cn1 (stereo partly drawn) [Example 98, 2-amino-N-{(1S,2S)-2-[(4-{(1S)-1-[4-(2,3-dihydroxypropyl)piperazin-1-yl]-2,3-dihydro-1H-inden-5-yl}phenyl)methoxy]cyclopentyl}-5-(1-methyl-1H-pyrazol-4-yl)pyridine-3-carboxamide] | < 10 nM | 10 to 100 nM | < 10 nM
9 | Cn1cc(-c2cnc(N)c(C(=O)N[C@H]3CCC[C@@H]3OCc3ccc(-c4ccc5c(c4)CC(F)(F)[C@@H]5N4CCN(CCO)CC4)cc3)c2)cn1 [Example 65, 2-amino-N-{(1S,2S)-2-[(4-{(1R)-2,2-difluoro-1-[4-(2-hydroxyethyl)piperazin-1-yl]-2,3-dihydro-1H-inden-5-yl}phenyl)methoxy]cyclopentyl}-5-(1-methyl-1H-pyrazol-4-yl)pyridine-3-carboxamide] | < 10 nM | 100 to 1000 nM | < 10 nM
10 | CN(C)CC(=O)NC1Cc2ccc(-c3ccc(CO[C@H]4CCC[C@@H]4NC(=O)c4cc(-c5cnn(C)c5)cnc4N)cc3)cc2C1 (stereo partly drawn) [Example 9, 2-amino-N-{(1S,2S)-2-[(4-{2-[2-(dimethylamino)acetamido]-2,3-dihydro-1H-inden-5-yl}phenyl)methoxy]cyclopentyl}-5-(1-methyl-1H-pyrazol-4-yl)pyridine-3-carboxamide] | < 10 nM | > 1000 nM | 10 to 100 nM
11 | Cn1cc(-c2cnc(N)c(C(=O)N[C@H]3CCC[C@@H]3OCc3ccc(-c4ccc5c(n4)C(C)(C)CN5C4CCN(CCO)CC4)cc3)c2)cn1 [Example 113, 2-amino-N-{(1S,2S)-2-[(4-{1-[1-(2-hydroxyethyl)piperidin-4-yl]-3,3-dimethyl-2,3-dihydro-1H-pyrrolo[3,2-b]pyridin-5-yl}phenyl)methoxy]cyclopentyl}-5-(1-methyl-1H-pyrazol-4-yl)pyridine-3-carboxamide] | < 10 nM | 100 to 1000 nM | 10 to 100 nM
12 | Cn1cc(-c2cnc(N)c(C(=O)N[C@H]3CCC[C@@H]3OCc3ccc(-c4ccc5c(c4)CC(F)(F)C5N4CCN(CC(O)CO)CC4)cc3)c2)cn1 (mixture of isomers) [Example 59, 2-amino-N-{(1S,2S)-2-[(4-{1-[4-(2,3-dihydroxypropyl)piperazin-1-yl]-2,2-difluoro-2,3-dihydro-1H-inden-5-yl}phenyl)methoxy]cyclopentyl}-5-(1-methyl-1H-pyrazol-4-yl)pyridine-3-carboxamide] | < 10 nM | 100 to 1000 nM | < 10 nM
13 | Nc1ncc(-c2ccc(F)nc2)cc1C(=O)N[C@H]1COC[C@@H]1OCc1ccc(-c2ccc3c(c2)CCC3N2CCN(CCO)CC2)cc1 (stereo partly drawn) [Example 20, 6-amino-6′-fluoro-N-{(3S,4R)-4-[(4-{1-[4-(2-hydroxyethyl)piperazin-1-yl]-2,3-dihydro-1H-inden-5-yl}phenyl)methoxy]oxolan-3-yl}[3,3′-bipyridine]-5-carboxamide] | < 10 nM | > 1000 nM | 10 to 100 nM
14 | Nc1ncc(-c2ccc(F)nc2)cc1C(=O)N[C@H]1CCC[C@@H]1OCc1ccc(-c2ccc3c(c2)CC[C@H]3N2CCN3C[C@H](O)C[C@H]3C2)cc1 [Example 118, 6-amino-6′-fluoro-N-{(1S,2S)-2-[(4-{(1R)-1-[(7R,8aS)-7-hydroxyhexahydropyrrolo[1,2-a]pyrazin-2 (1H)-yl]-2,3-dihydro-1H-inden-5-yl}phenyl)methoxy]cyclopentyl}[3,3′-bipyridine]-5-carboxamide] | < 10 nM | > 1000 nM | 10 to 100 nM
